Legend:
Aβ1-42 oligomers [1] = biological target: T1, Aβ1-42 oligomers (Homo sapiens, UniProt P05067); assay: Turbidity (right-angle light scattering at 633 nm) of peptides with Aβ1-42 oligomers; parameters: purchased Life Technologies; details: 40 μM Aβ, Hepes pH 7.4
Procedure: Turbidity Measurements of Aromatic-Cationic Peptides Complexed with Aβ1-42 Oligomers: The turbidity of solutions containing aromatic-cationic peptides and/or Aβ1-42 oligomers was measured via right-angle scattering at λ=633 nm (Hitachi F-4500 Fluorescent Spectrophotometer). All experiments were conducted in Hepes (pH 7.4) and scanned immediately.

[2] = biological target: T2, Aβ1-42-Cardiolipin-Cu^2+ complex (Homo sapiens, UniProt P05067); assay: Aβ1-42-Cardiolipin-Cu2+ complex oxygenase activity (Amplex Red, no H2O2); format: biochemical; details: for reduction in Aβ1-42-mediated oxygenase activity compared to untreated controls: 10 μM peptide, 30 μM CuCl2, 50 μM Amplex Red; for reduction in Aβ1-42-mediated oxygenase activity compared to untreated controls / inhibition of Aβ1-42-mediated oxygenase activity compared to untreated controls: 30 μM TLCL; for inhibition of Aβ1-42-mediated oxygenase activity compared to untreated controls: 100 μM peptide; for inhibition of Cu2+-dependent stimulation of Aβ1-42-mediated oxygenase activity, dose dependence: FIG. 4B, varying peptide concentrations; for increase in Aβ1-42-mediated oxygenase activity compared to the non-metal treated control: 10 μM metal salt incubated with cardiolipin and Aβ1-42 oligomers
T2 construct: purchased Life Technologies
T2 sequence (P05067 672-713 limits assumed, one chain of several): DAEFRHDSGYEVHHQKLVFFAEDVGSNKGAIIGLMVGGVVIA
Procedure: Oligomerization of Aβ1-42 Peptide: Aβ1-42 peptide was dissolved in 1.5 mL of a 1:1 water/acetonitrile solution. 500 μL aliquots were frozen in a methanol/dry ice cooling bath and then lyophilized. Once lyophilized, each aliquot was dissolved in 20 μL DMSO. The aliquots were then vortexed, centrifuged, and sonicated in a water bath at room temperature. 200 μL of filtered 1×PBS and 20 μL of 2% SDS were subsequently added. The Aβ1-42 peptide solution was incubated at 37° C. for 6 hours. 580 μL of water was subsequently added to the Aβ1-42 peptide solution, followed by a 16 hour incubation at 37° C. prior to being stored at 4° C.
Measurement of Aβ1-42-Cardiolipin-Cu^2+ Complex Oxygenase Activity:
Aβ1-42-Cardiolipin-Cu^2+ oxygenase activity was measured using the Amplex Red kit. Amplex Red is a dye that reacts with H2O2 in a 1:1 stoichiometric ratio to produce a highly fluorescent derivative called resorufin (λex/λem=570/585 nm). The presence of peroxidase activity in an Amplex reaction lacking H2O2 is an indicator of oxygenase activity resulting from the reaction between the Amplex Red reagent and oxygen in the solution. All experiments were conducted in the absence of H2O2. A measurement was immediately taken after the introduction of Amplex Red, the last reagent that was added to the reaction. The reaction was allowed to proceed for an additional 10 minutes. Continuous time course data over the 10-minute period was obtained using a microplate spectrofluorometer (Molecular Devices, Sunnyvale, Calif.).

Aβ1-42 oligomers [3] = biological target: T1, Aβ1-42 oligomers; assay: Fluorescence emission spectra: interaction of peptide with Aβ1-42 oligomers; format: binding; parameters: purchased Life Technologies; details: for shift of emission on contact with Aβ oligomers: 1 μM Aβ oligomers; for emission maximum (λmax) with Aβ oligomers: 20 mM Hepes pH 7.4, 1 μM Aβ oligomers
Description: Interaction of Aromatic-cationic Peptides with Aβ1-42 Oligomers:
D-Arg-2′,6′-Dmt-Lys-Ald-NH2 ([ald]SS-31) is an aladan (ald) containing derivative of D-Arg-2′,6′-Dmt-Lys-Phe-NH2 (SS-31). See Birk et al., J Am Soc Nephrol. 24(8): 1250-1261 (2013). […] Thus, interaction between D-Arg-2′,6′-Dmt-Lys-Ald-NH2 ([ald]SS-31) and phospholipids causes an observable shift in the fluorescence spectra of the peptide. See Birk et al., J Am Soc Nephrol. 24(8): 1250-1261 (2013). […] The fluorophore aladan was used as a control. All experiments were conducted in 20 mM Hepes (pH 7.4) so as to replicate an environment with physiological pH.

Aβ1-42 oligomers [4] = biological target: T1, Aβ1-42 oligomers; assay: Transmission electron microscopy of Aβ fibril formation
[5] = 800 nM Aβ oligomers, 30 μM CuCl2

T1 sequence (P05067 672-713 limits assumed): as the sequence (P05067 672-713 limits assumed, one chain of several) above

| Compound | change in light scattering (turbidity) compared to Aβ1-42 oligomer control sample (Aβ1-42 oligomers [1]) | light scattering (Aβ1-42 oligomers [1]) | reduction in Aβ1-42-mediated oxygenase activity compared to untreated controls ([2]; 800 nM Aβ oligomers) [%] | inhibition of Aβ1-42-mediated oxygenase activity compared to untreated controls [2, 5] | inhibition of Cu2+-dependent stimulation of Aβ1-42-mediated oxygenase activity, dose dependence [2] | shift of emission on contact with Aβ oligomers (Aβ1-42 oligomers [3]) | emission maximum (λmax) with Aβ oligomers (Aβ1-42 oligomers [3]; 1 μM, λex=360 nm) [nm] | increase in Aβ1-42-mediated oxygenase activity compared to the non-metal treated control [2] [%] | also measured |
| --- | --- | --- | --- | --- | --- | --- | --- | --- | --- |
| D-Arg-2′,6′-Dmt-Lys-Phe-NH2 [SS-31] | no change in turbidity | about 180 RFUs | 90 | complete inhibition | dose dependent | – | – | – | – |
| CCCCCC=CCC=CCCCCCCCC(=O)OCC(COP(=O)(O)OCC(O)COP(=O)(O)OCC(COC(=O)CCCCCCCC=CCC=CCCCCC)OC(=O)CCCCCCCC=CCC=CCCCCC)OC(=O)CCCCCCCC=CCC=CCCCCC (stereo not drawn) [TLCL, 1,1′,2,2′-tetralinoleoyl cardiolipin, reference compound] | – | – | – | – | – | – | – | – | stimulation of Aβ1-42-mediated oxygenase activity in the presence of Cu2+ ions by phospholipid [2, 5]: capable of stimulating |
| CN(C)c1ccc2cc(C(=O)CC(N)C(=O)O)ccc2c1 (stereo not drawn) [Ald, β-(6′-dimethylamino-2′-naphthoyl)alanine, reference compound] | no change in turbidity | about 180 RFUs | – | – | – | no shift | 535 | – | – |
| [Cl][Cu][Cl] [CuCl2, copper (II) chloride, reference compound] | – | – | – | – | – | – | – | > 500 | – |
| O=[N+]([O-])[O-].O=[N+]([O-])[O-].[Cu+2] [Cu(NO3)2, copper (II) nitrate hydrate, reference compound] | – | – | – | – | – | – | – | 500 | – |
| D-Arg-2′,6′-Dmt-Lys-Ald-NH2 [[ald]SS-31] | six-fold increase | – | 90 | complete inhibition | dose dependent | blue shift | 465 | – | emission maximum (λmax) before Aβ oligomers (Aβ1-42 oligomers [3]; 1 μM, λex=360 nm, 20 mM Hepes pH 7.4, no Aβ): 535 nm; incubation time resulting in formation of Aβ fibrils (Aβ1-42 oligomers [4]; natural fibrillation takes at least seven days): 25 min; increase in the rate of fibril formation (Aβ1-42 oligomers [4]; versus natural fibrillation): 400 fold |

Reference: patent US20160375088A1, “CARDIOLIPIN-TARGETED PEPTIDES INHIBIT BETA-AMYLOID OLIGOMER TOXICITY” (priority 2013, published 2016)
